The source of these data is patent US7893077B2, “Bisaryl-sulfonamides” (Amgen Inc., priority 2004, dated 2011).

Some results are limits rather than exact numbers.

This assay addresses T1, PPARγ (Homo sapiens, UniProt P37231).
T1 construct: made in house
T1 sequence (P37231 1-505): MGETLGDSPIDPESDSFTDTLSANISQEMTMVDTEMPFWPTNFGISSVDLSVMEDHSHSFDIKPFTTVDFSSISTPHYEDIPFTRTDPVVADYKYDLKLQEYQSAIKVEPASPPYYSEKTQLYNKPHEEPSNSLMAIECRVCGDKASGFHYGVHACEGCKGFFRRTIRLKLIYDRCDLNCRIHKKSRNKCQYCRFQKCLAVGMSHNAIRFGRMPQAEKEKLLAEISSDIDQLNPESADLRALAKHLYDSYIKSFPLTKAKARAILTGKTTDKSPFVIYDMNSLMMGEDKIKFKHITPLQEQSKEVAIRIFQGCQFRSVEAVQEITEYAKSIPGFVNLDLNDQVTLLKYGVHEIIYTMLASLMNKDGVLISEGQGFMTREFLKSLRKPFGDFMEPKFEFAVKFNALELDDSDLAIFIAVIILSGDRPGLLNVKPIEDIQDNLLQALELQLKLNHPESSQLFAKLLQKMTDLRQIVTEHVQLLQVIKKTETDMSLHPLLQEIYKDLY
Briefly: PPARγ ligand binding assay utilizing [3H]-BRL 49653 as the radioligand (filtration). The settings on record: concentration required to reduce by 50% the specific binding of [3H]-BRL 49653. The source says:
The compounds of the present invention can be evaluated for modulation of the PPARγ receptor using assays such as those described in Jiang, et al., Nature 391:82-86 (1998), Ricote, et al., Nature 391:79-82 (1998) and Lehmann, et al., J. Biol. Chem. 270(12): 12953-12956 (1995). Alternatively, the compounds can be evaluated for their ability to displace radiolabeled BRL 49653 from a PPARγ-GST fusion protein as follows:
PPARγ-GST fusion protein (prepared according to standard procedures), [^3H]-BRL 49653 having 50 Ci/mmol specific activity, Polyfiltronics Unifilter 350 filtration plate and glutathione-Sepharose® beads (from Pharmacia: washed twice with 10× binding buffer in which BSA and DTI can be left out).
Binding buffer (10 mM Tris-HCl, pH 8.0, 50 mM KCl, 10 mM DTT, 0.02% BSA and 0.0 1% NP-40) is added in 80-μL amounts to the wells of the filtration plate. The test compound is then added in 10 μL of DMSO. The PPARγ-GST fusion protein and radiolabeled BRL compound are premixed in binding buffer containing 10 mM DTT and added in 10-μL amounts to the wells of the plate to provide final concentrations of 1 µg/well of PPARγ-GST fusion protein and 10 nM [^3H]-BRL 49653 compound. The plate is incubated for 15 min. Glutathione-agarose bead is added in 50 μL of binding buffer, and the plate is vigorously shaken for one hour. The plate is washed four times with 200 μL/well of binding buffer (without BSA and DTT). The bottom of the plate is sealed and 200 μL/well of scintillation cocktail is added. The top of the plate is then sealed and the radioactivity is determined.
IC50 values are defined as the concentration of test compounds required to reduce by 50% the specific binding of [^3H]-BRL 49653 and are represented by (+)<30 μM; (++)<10 μM; (+++)<1 μM.

`CCCOc1nc(NS(=O)(=O)c2ccc(C(F)(F)F)cc2Cl)ccc1Sc1ccc(S(=O)(=O)N2CCCCC2)cc1` [Compound 110, 2-Chloro-N-{5-[4-(piperidine-1-sulfonyl)-phenylsulfanyl]-6-propoxy-pyridin-2-yl}-4-trifluoromethyl-benzenesulfonamide] displayed an IC50 of less than 10000 nM.
On to `O=S(=O)(Nc1ccc(Sc2ccc(S(=O)(=O)N3CCCCC3)cc2)cn1)c1ccc(C(F)(F)F)cc1Cl` [Compound 69, 2-Chloro-N-{5-[4-(piperidine-1-sulfonyl)-phenylsulfanyl]-pyridin-2-yl}-4-trifluoromethyl-benzenesulfonamide], for which the IC50 was less than 1000 nM.
As to `CCCC(=O)c1nc(NS(=O)(=O)c2ccc(C(F)(F)F)cc2Cl)ccc1Sc1ccc(S(=O)(=O)NCC)cc1` [Compound 120, N-[6-Butyryl-5-(4-ethylsulfamoyl-phenylsulfanyl)-pyridin-2-yl]-2-chloro-4-trifluoromethyl-benzenesulfonamide], the IC50 is less than 1000 nM.
Consider `CCCCc1nc(NS(=O)(=O)c2ccc(Cl)cc2Cl)ccc1Sc1ccc(S(=O)(=O)N2CCCCC2)cc1` [Compound 122, N-{6-Butyl-5-[4-(piperidine-1-sulfonyl)-phenylsulfanyl]-pyridin-2-yl}-2,4-dichloro-benzenesulfonamide], for which the half-inhibitory concentration (IC50) is less than 1000 nM.
In turn, `CC(C)NC(=O)c1nc(NS(=O)(=O)c2ccc(Cl)cc2Cl)ccc1Sc1ccc(S(=O)(=O)N2CCCCC2)cc1` [Compound 85, 6-(2,4-Dichloro-benzenesulfonylamino)-3-[4-(piperidine-1-sulfonyl)-phenylsulfanyl]-pyridine-2-carboxylic acid isopropylamide] registered an IC50 of less than 1000 nM.
Regarding `CCCCCOC(=O)c1cc(NS(=O)(=O)c2ccc(Cl)cc2Cl)ncc1Sc1ccc(S(=O)(=O)N2CCCCC2)cc1` [Compound 126, 2-(2,4-Dichloro-benzenesulfonylamino)-5-[4-(piperidine-1-sulfonyl)-phenylsulfanyl]-isonicotinic acid pentyl ester], the IC50 was less than 1000 nM.
`CCCCNc1nc(NS(=O)(=O)c2ccc(Cl)cc2Cl)ncc1Sc1ccc(S(=O)(=O)N2CCCCC2)cc1` [Compound 14, N-{4-Butylamino-5-[4-(piperidine-1-sulfonyl)-phenylsulfanyl]-pyrimidin-2-yl}-2,4-dichloro-benzenesulfonamide] registered an IC50 of less than 1000 nM.
As for `CCCC(=O)c1nc(NS(=O)(=O)c2ccc(C(F)(F)F)cc2Cl)ccc1Sc1ccc(S(=O)(=O)C(CC)CC)cc1` [Compound 116, N-{6-Butyryl-5-[4-(pentane-3-sulfonyl)-phenylsulfanyl]-pyridin-2-yl}-2-chloro-4-trifluoromethyl-benzenesulfonamide], the half-inhibitory concentration (IC50) was less than 1000 nM.
For the molecule `CCCC(=O)c1nc(NS(=O)(=O)c2ccc(C(F)(F)F)cc2Cl)ccc1Sc1ccc(S(=O)(=O)N(CC)CC)cc1` [Compound 99, N-[6-Butyryl-5-(4-diethylsulfamoyl-phenylsulfanyl)-pyridin-2-yl]-2-chloro-4-trifluoromethyl-benzenesulfonamide], the concentration for half-maximal inhibition (IC50) was less than 1000 nM.
The molecule `Cc1nc(NS(=O)(=O)c2ccc(C(F)(F)F)cc2Cl)ncc1Sc1ccc2ccccc2c1` [Compound 59, 2-Chloro-N-[4-methyl-5-(naphthalen-2-ylsulfanyl)-pyrimidin-2-yl]-4-trifluoromethyl-benzenesulfonamide] had a concentration for half-maximal inhibition (IC50) of less than 10000 nM.
Molecule `CCCC(=O)c1nc(NS(=O)(=O)c2ccc(C(F)(F)F)cc2Cl)ccc1Sc1ccc(S(=O)(=O)N2CCCC2)cc1` [Compound 97, N-{6-Butyryl-5-[4-(pyrrolidine-1-sulfonyl)-phenylsulfanyl]-pyridin-2-yl}-2-chloro-4-trifluoromethyl-benzenesulfonamide] came in with an IC50 of less than 1000 nM.
`Cc1cc(S(=O)(=O)Nc2cc(C)c(Sc3ccc(S(=O)(=O)N4CCCCC4)cc3)cn2)c(Cl)cc1Cl` [Compound 62, 2,4-Dichloro-5-methyl-N-{4-methyl-5-[4-(piperidine-1-sulfonyl)-phenylsulfanyl]-pyridin-2-yl}-benzenesulfonamide] registered a half-inhibitory concentration (IC50) of less than 1000 nM.
In the case of `Cc1cc(NS(=O)(=O)c2ccc(C(F)(F)F)cc2Cl)nnc1Sc1ccc(S(=O)(=O)N2CCCCC2)cc1` [Compound 136, 2-Chloro-N-{5-methyl-6-[4-(piperidine-1-sulfonyl) -phenylsulfanyl]-pyridazin-3-yl}-4-trifluoromethyl-benzenesulfonamide], the concentration for half-maximal inhibition (IC50) is less than 1000 nM.
In turn, `Cc1nc(NS(=O)(=O)c2ccc(Cl)cc2Cl)ncc1Sc1ccc(S(=O)(=O)N2CCCCC2)cc1` [Compound 49, 2,4-Dichloro-N-{4-methyl-5-[4-(piperidine-1-sulfonyl) -phenylsulfanyl]-pyrimidin-2-yl}-benzenesulfonamide] gave a concentration for half-maximal inhibition (IC50) of less than 10000 nM.
With `COc1nc(NS(=O)(=O)c2ccc(Cl)cc2Cl)ncc1Sc1ccc2ccccc2c1` [Compound 30, 2,4-Dichloro-N-[4-methoxy-5-(naphthalen-2-ylsulfanyl)-pyrimidin-2-yl]-benzenesulfonamide], the IC50 was less than 10000 nM.
In turn, `COCCNc1nc(NS(=O)(=O)c2ccc(Cl)cc2Cl)ncc1Sc1ccc(S(=O)(=O)N2CCCCC2)cc1` [Compound 16, 2,4-Dichloro-N-{4-(2-methoxy-ethylamino)-5-[4-(piperidine-1-sulfonyl)-phenylsulfanyl]-pyrimidin-2-yl}-benzenesulfonamide] came in with a half-inhibitory concentration (IC50) of less than 1000 nM.
In the case of `CCCC(=O)c1nc(NS(=O)(=O)c2ccc(Cl)cc2Cl)ccc1Sc1ccc(S(=O)(=O)C(C)C)cc1` [Compound 106, N-{6-Butyryl-5-[4-(propane-2-sulfonyl)-phenylsulfanyl]-pyridin-2-yl}-2,4-dichloro-benzenesulfonamide], the IC50 is less than 1000 nM.
Molecule `O=C(c1nc(NS(=O)(=O)c2ccc(C(F)(F)F)cc2Cl)ccc1Sc1ccc(S(=O)(=O)N2CCCCC2)cc1)C1CC1` [Compound 89, 2-Chloro-N-{6-cyclopropanecarbonyl-5-[4-(piperidine-1-sulfonyl)-phenylsulfanyl]-pyridin-2-yl}-4-trifluoromethyl-benzenesulfonamide] displayed an IC50 of less than 1000 nM.
The same measure for `O=C(O)c1nc(NS(=O)(=O)c2ccc(Cl)cc2Cl)ccc1Sc1ccc(S(=O)(=O)N2CCCCC2)cc1` [Compound 71, 6-(2,4-Dichloro-benzenesulfonylamino)-3-[4-(piperidine-1-sulfonyl)-phenylsulfanyl]-pyridine-2-carboxylic acid]: less than 10000 nM.
Regarding `Cc1nc(NS(=O)(=O)c2ccc(C(F)(F)F)cc2Cl)ncc1Sc1ccc(S(=O)(=O)N2CCOCC2)cc1` [Compound 53, 2-Chloro-N-{4-methyl-5-[4-(morpholine-4-sulfonyl) -phenylsulfanyl]-pyrimidin-2-yl}-4-trifluoromethyl-benzenesulfonamide], the IC50 is less than 10000 nM.
As for `CCCCc1cc(NS(=O)(=O)c2ccc(Cl)cc2Cl)nnc1Sc1ccc(S(=O)(=O)N2CCOCC2)cc1` [Compound 131, 3-(2′,4′-dichloro)phenylsulfonylamino-5-n-butyl-6-(4″-N-morpholinesulfonyl)phenylthiopyridazine], the figure is less than 1000 nM; as for `O=C(c1nc(NS(=O)(=O)c2ccc(C(F)(F)F)cc2Cl)ccc1Sc1ccc(S(=O)(=O)C2CCOCC2)cc1)C1CC1` [Compound 102, 2-Chloro-N-{6-cyclopropanecarbonyl-5-[4-(tetrahydro-pyran-4-sulfonyl)-phenylsulfanyl]-pyridin-2-yl}-4-trifluoromethyl-benzenesulfonamide], less than 1000 nM; as for `O=C(c1nc(NS(=O)(=O)c2ccc(Cl)cc2Cl)ccc1Sc1ccc(S(=O)(=O)N2CCOCC2)cc1)C1CC1` [Compound 79, 2,4-Dichloro-N-{6-cyclopropanecarbonyl-5-[4-(morpholine-4-sulfonyl)-phenylsulfanyl]-pyridin-2-yl}-benzenesulfonamide], less than 1000 nM.
Turning to `CCNS(=O)(=O)c1ccc(Sc2ccc(NS(=O)(=O)c3ccc(C(F)(F)F)cc3Cl)nc2C(=O)C2CC2)cc1` [Compound 121, 2-Chloro-N-[6-cyclopropanecarbonyl-5-(4-ethylsulfamoyl-phenylsulfanyl)-pyridin-2-yl]-4-trifluoromethyl-benzenesulfonamide], the IC50 is less than 1000 nM.
